One compound from patent US6613762B2, “Gambogic acid, analogs and derivatives as activators of caspases and inducers of apoptosis” (Cytovia, Inc., priority 1999, dated 2003) can be followed below.

This assay concerns caspase activity, T47D cells. As to the kind of experiment: Caspase induction and its inhibition by caspase inhibitor (Example 97), T47D. The assay is classed as cell-based, human. The arrangement: key to Inhibition of caspase activity by Inhibitor: The caspase activity detected was inhibited by the caspase inhibitor (+). The procedure: T47D, ZR-75, PC3, SHP-77 and A-549 cells were maintained and harvested as described in Example 90. Cells were added to 96-well plates as described in Example 90. The cells were treated with 10 μM gambogic acid, in the presence and in the absence of 10 μM caspase inhibitor cbz-Val-Asp-fmk (Cytovia, Inc.; WO99/18781). The plate was incubated up to 24 h at 37° C in a 5% CO2-95% humidity incubator. Caspase activity was determined by addition of a fluorogenic substrate as described in Example 90.
Gambogic acid induced caspase activity in a ratio of greater than 2.5 (+) above untreated cell levels in all the tested cancer cell lines (Table IV). The caspase activity detected was inhibited by the caspase inhibitor (+), confirming that the fluorescent signal was due to caspase activity.

On to `CC(C)=CCC[C@]1(C)C=Cc2c(O)c3c(c(CC=C(C)C)c2O1)O[C@]12C(=C[C@@H]4C[C@H]1C(C)(C)O[C@@]2(C/C=C(/C)C(=O)O)C4=O)C3=O` [Example 1, Gambogic Acid], for which the “Inhibition of caspase activity by Inhibitor” value (10 μM gambogic acid with 10 μM caspase inhibitor cbz-Val-Asp-fmk) is “+”. In addition, where the note is “10 μM gambogic acid, up to 24 h”, the Caspase activity result is recorded as “+ (Gambogic acid induced caspase activity in a ratio of greater than 2.5 (+) above untreated cell levels)”.
